Laboratory results published in patent EP1598418A1, “STABILISED COMPOSITION FOR FLUORIMETRIC, COLORIMETRIC OR CHEMOLUMINESCENT ASSAYS, KITS CONTAINING SAME AND PRODUCTION METHOD THEREOF” (BIOTOOLS BIOTECHNOLOGICAL & MEDICAL LABORATORIES, S.A., priority 2003, dated 2004).

Legend:
Settings in all cases: conserved at T 4 °C, vs fresh mixture
Scorpion probes = assay: Real-time amplification with desiccated, stabilised reaction mixture with Scorpion probes after storage (Example 4); type: biochemical, M. tuberculosis
[1] = system: nucleic acids immobilised in ELISA microplates; assay: Amplification and colorimetric detection with stabilised nucleic acids immobilised in ELISA microplates (Example 10.1)
[2] = system: streptoavidin conjugated with HRP (Str-HRP) and anti-digoxygenin conjugated with alkaline phospatase (anti-DIG-AP); assay: Colorimetric ELISA plate activity test of desiccated, stabilised conjugates (Example 8); type: biochemical, HPV 16
Method: In 0.2 ml amplification tubes were added 100 microlitres of a 1/250 dilution in a blocking solution of the conjugate Str-HRP (Biospa). In parallel, 0.2 ml phials were prepared in which 100 microlitres were added of a 1/250 dilution in a blocking solution of anti-DIG-AP (Sigma).
For the activity assay of the conjugate anti-DIG-AP an ELISA plate was used in which the dimples had been previously coated with streptoavidin. For the activity assay of conjugate Str-HRP a plate was used instead with dimples previously coated with anti-DIG antibodies. The amplified products were incubated in each plate to allow the immobilisation of the amplicons in the plate.

[3] = system: Molecular Beacon (MB) probe; assay: Real-time amplification with desiccated, stabilised reaction mixture with Molecular Beacon probe after storage (Example 3); type: biochemical, P. falciparum
[4] = system: reaction mixture with SYBR Green; assay: Real-time amplification with desiccated, stabilised reaction mixture with SYBR Green after storage (Example 5); type: biochemical, oncogenic papillomaviruses
Method: To test the efficiency of intercalated fluorophores such as SYBR Green included in desiccated and stabilised reaction mixtures, reaction mixtures were prepared for amplifying a 250 bp fragment corresponding to region E6-E7 of oncogenic papillomaviruses, using the same reagents as described in Example 1. In this case the unit "DNA Engine OPTICON™ 2 System" (MJ Research) was used. […] Also to each phial was added […] of SYBR Green 1 (Molecular probes).
Various tubes were prepared as described above, adding to each the suitable volume of each stabilising mixture shown in Table 1.
In parallel, in order to check the evolution of the activity of the desiccated tubes, DNA samples were amplified using a fresh mixture in the same amplification conditions.
The result of the amplification reaction was analysed in every case by inspecting the fluorescence curve and determining the crossing point, following the instructions of the equipment software, for each reaction tube both fresh and desiccated and stabilised. […] The samples of patients infected with oncogenic HPV gave positive results in every case, while patients infected with non-oncogenic HPV, or not infected with HPV, gave negative results in every case.

FRET probes = assay: Real-time amplification with desiccated, stabilised reaction mixture with FRET probes after storage (Example 1); type: biochemical, P. falciparum
antidigoxygenin antibody = assay: Colorimetry assay of stabilised protein immobilised in ELISA microplates (Example 10.2); type: biochemical, HPV
Method: To do so each dimple was incubated with 1µg of antidigoxygenin antibody (Roche).
The amplified product was incubated for 30 minutes in the dimples with the antibody immobilised. The amplified products immobilised in the plate by the union of the digoxygenin group of the amplicons and the immobilised anti-digoxygenin group were analysed by a colorimetric assay. […] The colorimetric reaction was finally analysed by measuring absorption at 415 nm.

[5] = system: DTCS Quick Start Master Mix; assay: Sequencing reaction with desiccated, stabilised mixture with fluorescent terminators after storage (Example 6); type: biochemical, human papillomavirus
Method: To test the possibility of gelling reaction mixtures for sequencing nucleic acids the CEQ 200 Dye Terminator Cycle Sequencing (DTCS) Quick Start Kit (Beckman Coulter) was employed, which uses a PCR sequencing system in a single tube by incorporating four different fluorescent terminators. The sequencing reactions were later analysed in a CEQ 2000 XL DNA Analysis System (Beckman Coulter) capillary electrophoresis automatic sequencing system.
Reaction mixtures were prepared containing 4 microlitres of DTCS Quick Start Master Mix, 1 microlitre of universal primer M13-17 and the suitable volume of each stabilising mixture shown in Table 1.
In parallel, in order to check the evolution of the activity of the desiccated and stabilised tubes, the same plasmid was sequenced using a fresh sequencing mixture in standard conditions. Finally, the sequencing reactions were analysed in the CEQ 200XL system following the supplier's instructions.

[6] = system: oligonucleotides chemically modified by including biotin and/or digoxygenin groups; assay: Amplification with desiccated biotin/digoxygenin oligonucleotides and colorimetric ELISA plate assay (Example 7); type: biochemical, oncogenic HPV
Method: To do so, 4 oligonucleotides were designed that hybridised with the genome of region E6-E7 of oncogenic HPV species.
To do so, an ELISA microplate with a high-binding capacity to streptoavidin (Biospa) was activated following a standard fixing protocol. Then, after blocking the plate by incubation with gelatine, the amplified products of the stabilising mixtures 1, 2 and 3 described in Example 7.A were analysed by a colorimetry assay according to the following experimental process: • A.- Amplification products using an onligonucleotide marked with digoxygenin (mixture 1 in Example 7.A). The biotinated probe A11 was fixed to the plate and the amplified product was hybridised. […] The amplification product was fixed to the plate with the first biotinilate and then hybridised with the first A12 marked with digoxygenin.

TaqMan probes = assay: Real-time amplification with desiccated, stabilised reaction mixture with TaqMan probes after storage (Example 2); type: biochemical, P. falciparum
[7] = system: probes marked with biotin or digoxygenin groups; assay: Synthesis of digoxygenin-marked probes with desiccated mixtures and molecular hybridisation test (Example 9)
[8] = system: Anti-digoxygenin antibodies; assay: Colorimetric assay of stabilised proteins immobilised in modified glasses (Example 10.4); type: biochemical, P. falciparum
Method: To test the possibility of stabilising proteins that have been previously immobilised in pre-treated glass supports, the usual format of microarray systems, two different alternatives were tested as in the previous experiment.
Approach 1. Stabilisation of supports with previously fixed protein. Anti-digoxygenin antibodies were fixed to glass supports pre-treated with aldehyde. To do so, in each support slide 1 microlitre spots were applied of the solution of each protein at a concentration of 30 ng/µl. The slides with the immobilised protein were then coated with a thin layer of each of the stabilising mixtures and then desiccated in a vacuum oven at 25°C and 50 mbar pressure.
Approach 2. Fixation to the slides of the protein pre-mixed with the stabilising mixtures. A mixture was prepared of each of the probes with the suitable volumes of the stabilising mixtures described in Table 1. Then the mixtures of protein were applied to the various slides with the fixing conditions indicated for each glass format.
To test the viability of each slide prepared, a colorimetric assay was performed with formation of precipitate products. To do so, the slides were washed for 5 minutes in PBS 1X at room temperature to eliminate the protective layer.

[9] = system: nucleic acids immobilised in modified glasses; assay: Colorimetric assay of stabilised nucleic acids immobilised in modified glasses (Example 10.3); type: biochemical, HPV 16
Method: Approach 1. Stabilisation of supports with previously fixed nucleic acids. HPV specific probes were fixed to glass supports pre-treated with polylysiun, aldehyde, epoxy, superepoxy and silane. To do so, in each support slide 1 microlitre spots were applied of the solution of each oligonucleotide at a concentration of 20 µM in the conditions indicated for each glass format. The slides with the immobilised oligonucleotides were then coated with a thin layer of each of the stabilising mixtures and then desiccated in a vacuum oven at 25°C and 50 mbar pressure.
Approach 2. Fixation to the slides of the nucleic acids pre-mixed with the stabilising mixtures. A mixture was prepared of each of the probes with the suitable volumes of the stabilising mixtures described in Table 1. Then the mixtures of oligonucleotides were applied to the various slides with the fixing conditions indicated for each glass format.
To test the viability of each slide prepared, a colorimetric assay was performed with formation of precipitate products. To do so, the slides were washed for 5 minutes in PBS 1X at room temperature to eliminate the protective layer. Then the slides were incubated in the presence of an amplified and previously denatured HPV 16 product using the probes A11 and A12.

In the case of OC[C@H]1O[C@H](OC[C@H]2O[C@H](O[C@]3(CO)O[C@H](CO)[C@@H](O)[C@@H]3O)[C@H](O)[C@@H](O)[C@@H]2O)[C@H](O)[C@@H](O)[C@H]1O [Rafinose], the “activity of stabilising mixtures” value (Scorpion probes) is reported as “+ (+, weak positive, under 50% of the activity of the fresh mixture)”, the “activity of stabilising mixtures” value [1] is reported as “+ (+, weak positive, under 50% of the activity of the fresh mixture)” and the “activity of stabilising mixtures” value [2] is reported as “+ (+, weak positive, under 50% of the activity of the fresh mixture)”. For the same compound, the “activity of stabilising mixtures” value [3] was “+ (+, weak positive, under 50% of the activity of the fresh mixture)”, the “activity of stabilising mixtures” value [4] was “+ (+, weak positive, under 50% of the activity of the fresh mixture)” and the “activity of stabilising mixtures” value (FRET probes) was “+ (+, weak positive, under 50% of the activity of the fresh mixture)”. The “activity of stabilising mixtures” value (antidigoxygenin antibody) was “+ (+, weak positive, under 50% of the activity of the fresh mixture)”, the “activity of stabilising mixtures” value [5] was “+ (+, weak positive, under 50% of the activity of the fresh mixture)” and the “activity of stabilising mixtures” value [6] was “+ (+, weak positive, under 50% of the activity of the fresh mixture)”. The “activity of stabilising mixtures” value (TaqMan probes) was “+ (+, weak positive, under 50% of the activity of the fresh mixture)”, the “activity of stabilising mixtures” value [7] was “+ (+, weak positive, under 50% of the activity of the fresh mixture)” and the “activity of stabilising mixtures” value [8] was “+ (+, weak positive, under 50% of the activity of the fresh mixture)”. For the same compound, the “activity of stabilising mixtures” value [9] was “+ (+, weak positive, under 50% of the activity of the fresh mixture)”.
In the case of OC[C@H]1O[C@@](CO)(O[C@H]2O[C@H](CO)[C@@H](O)[C@H](O)[C@H]2O)[C@@H](O)[C@@H]1O [Sucrose], the “activity of stabilising mixtures” value (Scorpion probes) is reported as “+ (+, weak positive, under 50% of the activity of the fresh mixture)”, the “activity of stabilising mixtures” value [1] is reported as “+ (+, weak positive, under 50% of the activity of the fresh mixture)” and the “activity of stabilising mixtures” value [2] is reported as “+ (+, weak positive, under 50% of the activity of the fresh mixture)”. For the same compound, the “activity of stabilising mixtures” value [3] was “+ (+, weak positive, under 50% of the activity of the fresh mixture)”, the “activity of stabilising mixtures” value [4] was “+ (+, weak positive, under 50% of the activity of the fresh mixture)” and the “activity of stabilising mixtures” value (FRET probes) was “+ (+, weak positive, under 50% of the activity of the fresh mixture)”. For the same compound, the “activity of stabilising mixtures” value (antidigoxygenin antibody) was “+ (+, weak positive, under 50% of the activity of the fresh mixture)”, the “activity of stabilising mixtures” value [5] was “+ (+, weak positive, under 50% of the activity of the fresh mixture)” and the “activity of stabilising mixtures” value [6] was “+ (+, weak positive, under 50% of the activity of the fresh mixture)”. For the same compound, the “activity of stabilising mixtures” value (TaqMan probes) was “+ (+, weak positive, under 50% of the activity of the fresh mixture)”, the “activity of stabilising mixtures” value [7] was “+ (+, weak positive, under 50% of the activity of the fresh mixture)” and the “activity of stabilising mixtures” value [8] was “+ (+, weak positive, under 50% of the activity of the fresh mixture)”. For the same compound, the “activity of stabilising mixtures” value [9] was “+ (+, weak positive, under 50% of the activity of the fresh mixture)”.
With OC[C@H]1O[C@@](CO)(O[C@H]2O[C@H](CO)[C@@H](O)[C@H](O)[C@H]2O)[C@@H](O[C@H]2O[C@H](CO)[C@@H](O)[C@H](O)[C@H]2O)[C@@H]1O [Melezitose] the “activity of stabilising mixtures” value (Scorpion probes) was “+ (+, weak positive, under 50% of the activity of the fresh mixture)”, the “activity of stabilising mixtures” value [1] was “+ (+, weak positive, under 50% of the activity of the fresh mixture)” and the “activity of stabilising mixtures” value [2] was “+ (+, weak positive, under 50% of the activity of the fresh mixture)”. The “activity of stabilising mixtures” value [3] was “+ (+, weak positive, under 50% of the activity of the fresh mixture)”, the “activity of stabilising mixtures” value [4] was “+ (+, weak positive, under 50% of the activity of the fresh mixture)” and the “activity of stabilising mixtures” value (FRET probes) was “+ (+, weak positive, under 50% of the activity of the fresh mixture)”. The “activity of stabilising mixtures” value (antidigoxygenin antibody) was “+ (+, weak positive, under 50% of the activity of the fresh mixture)”, the “activity of stabilising mixtures” value [5] was “+ (+, weak positive, under 50% of the activity of the fresh mixture)” and the “activity of stabilising mixtures” value [6] was “+ (+, weak positive, under 50% of the activity of the fresh mixture)”. For the same compound, the “activity of stabilising mixtures” value (TaqMan probes) was “+ (+, weak positive, under 50% of the activity of the fresh mixture)”, the “activity of stabilising mixtures” value [7] was “+ (+, weak positive, under 50% of the activity of the fresh mixture)” and the “activity of stabilising mixtures” value [8] was “+ (+, weak positive, under 50% of the activity of the fresh mixture)”. For the same compound, the “activity of stabilising mixtures” value [9] was “+ (+, weak positive, under 50% of the activity of the fresh mixture)”.
